Experiments:
[1] = biological target: TarO (Staphylococcus aureus, UniProt Q2G060); type: cell-based; conditions: for IC50: relative inhibition rate against the wild-type strain, OD600 at 20 h, n.a. = IC50 cannot be calculated within the test range; for TarO inhibitory activity (in words): SAR discussion
[2] = test system: USA300 LAC; experiment: Checkerboard MIC assay with oxacillin; type: cell-based, Staphylococcus aureus; conditions: for FICI / Sensitization fold / Minimum sensitization concentration: USA300 LAC/oxacillin; for Minimum sensitization concentration: test range 0.03–32 μg/mL
Method: (§1) In the checkerboard assay, concentrations of antibiotics, oxacillin and imipenem, and TarO inhibitors were simultaneously varied across columns and the rows, respectively. […] The range of each compound chosen for the checkerboard assay was according to their MIC value. […] For each clear well observed on the checkerboard MIC plate, the fractional inhibitory concentration index (FICI) was calculated as follows: FICI = FIC (inhibitor) + FIC (antibiotic) = MIC inhibitor in combination/ MIC inhibitor alone + MIC antibiotic in combination/MIC antibiotic alone. FIC = Fractional Inhibitory Concentration. A FICI value of < 0.5 indicates synergy, a value between 0.5 and 2 indicates additivity or indifference, and a value > 2 indicates antagonism.

[3] = Cytotoxicity assay (Sulforhodamine B); type: cell-based; conditions: human
Method: The cytotoxicity was detected by Sulforhodamine B method. The human pancreatic cancer cell line Capan-1, human colon cancer cell line HCT-116 and human lung adenocarcinoma cell line NCI-H1373 were purchased from American Type Culture Collection (ATCC; Manassas, VA) and inoculated into 96-well plates in triplicate. The cells were treated with different concentrations of compounds in humidified incubator containing 5% CO2 for 72 h when they reached 70%-80% confluence. Vincristine was added as a positive control. Then, SRB staining agent was added and microplate analyzer was used to read the absorbance at 450 nm wavelength. The cytotoxicity of each compound is expressed as the concentration of the compound that reduces cell viability to 50% (IC50). The optical density (OD) at a wavelength of 450 nm was measured using an SpectraMax 190 Microplate Reader (Molecular Devices; USA). The IC50 value was calculated by the Logit method using Graphpad Prism 9.1.

[4] = test system: USA400 MW2; experiment: Checkerboard MIC assay with oxacillin; type: cell-based, Staphylococcus aureus
Method: as §1

[5] = test system: HS663; experiment: Checkerboard MIC assay with imipenem; type: cell-based, Staphylococcus aureus
Method: as §1

[6] = test system: S.aureus USA300 LAC biofilm; experiment: Static biofilm inhibition assay (crystal violet); type: cell-based, Staphylococcus aureus
[7] = Preliminary liver microsomal stability testing; type: in vitro ADME, Mouse
Method: 6. Supplementary Ta b l e 3: Preliminary liver microsomal stability testing of Ta r O
Compounds Species T1/2 Clint In Vitro MF […]
a MF: metabolic bioavailability.
Microsomes in 0.1 M TRIS buffer pH 7.4 (final concentration 0.33 mg/mL), co- factor MgCl2 (final concentration 5 mM) and tested compound (final concentration 0.1 μM, co-solvent 0.01% DMSO and 0.005% Bovin serum albumin BSA) were incubated at 37°C for 10 min. The reaction was started by the addition of NADPH (final concentration 1 mM). Aliquots were sampled at 0, 5, 15, 30 and 60 min respectively and methanol (cold in wet ice) was added to terminate the reaction.
After centrifugation (4000rpm,5 min), samples were then analyzed by LC- MS/MS.

[8] = test system: USA300 LAC; experiment: MIC determination, broth microdilution; conditions: Staphylococcus aureus
[9] = test system: USA400 MW2; experiment: MIC determination, broth microdilution; conditions: Staphylococcus aureus
[10] = test system: HS663; experiment: MIC determination, broth microdilution; conditions: Staphylococcus aureus
[11] = at maximum sensitization concentration
[12] = at minimum sensitization concentration
[13] = USA400 MW2/oxacillin, at maximum sensitization concentration
[14] = USA400 MW2/oxacillin, at minimum sensitization concentration
[15] = USA400 MW2/oxacillin, test range 0.03–32 μg/mL
[16] = HS663/imipenem, at maximum sensitization concentration
[17] = HS663/imipenem, at minimum sensitization concentration
[18] = HS663/imipenem, test range 0.03–32 μg/mL

## C[C@H]1[C@@H](c2cc(C(F)(F)F)cc(C(F)(F)F)c2)OC(=O)N1C(=O)OCc1cccc2ccccc12 [Compound 1]
[1]
  IC50: 0.161 µM
[2]; [11]
  FICI: < 0.07
  Sensitization fold: 16
[2]; [12]
  Sensitization fold: 8
[2]
  Minimum sensitization concentration: 0.06 µg/mL

## C[C@H]1[C@@H](c2cc(C(F)(F)F)cc(C(F)(F)F)c2)OC(=O)N1C(=O)SCc1cccc2ccccc12 [Compound 2]
[1]
  TarO inhibitory activity (in words): potent TarO inhibitory activity
  IC50: 0.0974 µM
[2]; [11]
  FICI: < 0.04
  Sensitization fold: 32
[2]; [12]
  Sensitization fold: 8
[2]
  Minimum sensitization concentration: 0.06 µg/mL

## C[C@H]1[C@@H](c2cc(C(F)(F)F)cc(C(F)(F)F)c2)OC(=O)N1C(=S)NCc1cccc2ccccc12 [Compound 5]
[1]
  IC50: 8.98 µM
[2]; [11]
  FICI: < 0.13
  Sensitization fold: 8
[2]; [12]
  Sensitization fold: 8
[2]
  Minimum sensitization concentration: 0.25 µg/mL

## C[C@H]1[C@@H](c2cc(C(F)(F)F)cc(C(F)(F)F)c2)OC(=O)N1C(=O)N1CC(c2cccc3ccccc23)C1 [Compound 6]
[1]
  TarO inhibitory activity (in words): loss of activity

## C[C@H]1[C@@H](c2cc(C(F)(F)F)cc(C(F)(F)F)c2)OC(=O)N1C(=O)CNc1cccc2ccccc12 [Compound 7]
[1]
  IC50: 7.19 µM

## C[C@H]1[C@@H](c2cc(C(F)(F)F)cc(C(F)(F)F)c2)OC(=O)N1C(=O)CCC1CCCCC1 [Compound 8]
[1]
  TarO inhibitory activity (in words): inactive

## C[C@H]1[C@@H](c2cc(C(F)(F)F)cc(C(F)(F)F)c2)OC(=O)N1C(=O)CCN1CCS(=O)(=O)c2ccccc21 [Compound 9]
[1]
  TarO inhibitory activity (in words): potent inhibition activity comparable to Tarocin A
  IC50: 6.32 µM

## C[C@H]1[C@@H](c2cc(C(F)(F)F)cc(C(F)(F)F)c2)OC(=O)N1C(=O)CCN1CCCc2ccccc21 [Compound 10]
[1]
  IC50: 0.14 µM
[3]; Capan-1 cells (human pancreatic cancer cell line), Capan-1, 72 h
  IC50 at 72 h: > 20 µM
[3]; HCT-116 cells (human colon cancer cell line), HCT-116, 72 h
  IC50 at 72 h: > 20 µM
[3]; NCI-H1373 cells (human lung adenocarcinoma cell line), NCI-H1373, 72 h
  IC50 at 72 h: > 20 µM
[2]; [11]
  FICI: <0.07
  Sensitization fold: 16
[2]; [12]
  FICI: <0.13
  Sensitization fold: 8
[2]
  Minimum sensitization concentration: 0.03 µg/mL
[4]; [13]
  FICI: <0.07
  Sensitization fold: 16
[4]; [14]
  FICI: <0.13
  Sensitization fold: 8
[4]; [15]
  Maximum sensitization concentration: 0.12 µg/mL
  Minimum sensitization concentration: 0.03 µg/mL
[4]; oxacillin with TarO inhibitor at maximum sensitization concentration, USA400 MW2
  MIC of β-lactam, combined: 1 µg/mL
[4]; oxacillin with TarO inhibitor at minimum sensitization concentration, USA400 MW2
  MIC of β-lactam, combined: 2 µg/mL
[5]; [16]
  FICI: <0.02
  Sensitization fold: 64
[5]; [17]
  FICI: <0.13
  Sensitization fold: 8
[5]; [18]
  Maximum sensitization concentration: 0.25 µg/mL
  Minimum sensitization concentration: 0.03 µg/mL
[5]; imipenem with TarO inhibitor at maximum sensitization concentration, HS663
  MIC of β-lactam, combined: 1 µg/mL
[5]; imipenem with TarO inhibitor at minimum sensitization concentration, HS663
  MIC of β-lactam, combined: 8 µg/mL
[6]; 0.125 μg/mL
  inhibition of biofilm formation: near a half
[6]; Staphylococcus aureus, USA300, read-out: inhibition of biofilm formation
  inhibition at 0.5 µg/mL: > 90%
[7]; Mouse liver microsomes
  Clint In Vitro: 1779 mL/min/gprot
  Comments (metabolic stability): poor
[7]; pH 7.4, Mouse liver microsomes 0.33 mg/mL, 0.1 μM compound
  half-life at 0.1 μM: 1.18 min
[8]
  MIC: > 256 µg/mL
[9]
  MIC: > 256 µg/mL
[10]
  MIC: > 256 µg/mL

## C[C@H]1[C@@H](c2cc(C(F)(F)F)cc(C(F)(F)F)c2)OC(=O)N1C(=O)CCN1CCOc2ccccc21 [Compound 11]
[1]
  IC50: 1.99 µM
[2]; [11]
  FICI: < 0.07
  Sensitization fold: 16
[2]; [12]
  Sensitization fold: 4
[2]
  Minimum sensitization concentration: 0.03 µg/mL

## C[C@H]1[C@@H](c2cc(C(F)(F)F)cc(C(F)(F)F)c2)OC(=O)N1C(=O)CCN1CCC(=O)c2ccccc21 [Compound 12]
[1]
  IC50: 5.05 µM

## C[C@H]1[C@@H](c2cc(C(F)(F)F)cc(C(F)(F)F)c2)OC(=O)N1C(=O)CCc1cccc2c1OCCC2=O [Compound 14]
[1]
  IC50: 4.04 µM
[2]; [11]
  FICI: < 0.08
  Sensitization fold: 16
[2]; [12]
  Sensitization fold: 8
[2]
  Minimum sensitization concentration: 0.25 µg/mL

## C[C@H]1[C@@H](c2cc(C(F)(F)F)cc(C(F)(F)F)c2)OC(=O)N1C(=O)CCn1ccc(=O)c2ccccc21 [Compound 17a]
[1]
  IC50: 4.08 µM
[2]; [11]
  FICI: < 0.13
  Sensitization fold: 1024
[2]; [12]
  FICI: < 0.15
  Sensitization fold: 8
[2]
  Minimum sensitization concentration: 4 µg/mL

## COc1cc(C(F)(F)F)cc([C@H]2OC(=O)N(C(=O)CCn3ccc(=O)c4ccccc43)[C@H]2C)n1 [Compound 17b]
[1]
  IC50: 22.4 µM

## C[C@H]1[C@@H](c2cc(F)cc(C(F)(F)F)c2)OC(=O)N1C(=O)CCn1ccc(=O)c2ccccc21 [Compound 17c]
[1]
  IC50: 27.8 µM

## C[C@H]1[C@@H](c2cccc(C(F)(F)F)c2)OC(=O)N1C(=O)CCn1ccc(=O)c2ccccc21 [Compound 17d]
[1]
  IC50: 30.2 µM

## C[C@H]1[C@@H](c2cc(C(F)(F)F)cc(C(F)(F)F)c2)OC(=O)N1C(=O)CCN1CCS(=O)(=O)CC1 [Compound 19]
[1]
  TarO inhibitory activity (in words): lost its activity

## C[C@H]1[C@@H](c2cc(C(F)(F)F)cc(C(F)(F)F)c2)OC(=O)N1C(=O)CCc1cccc2c1OCC/C2=N\O [Compound 23]
[1]
  IC50: 7.54 µM

## C[C@H]1[C@@H](c2cccc(C(F)(F)F)c2)OC(=O)N1C(=O)NCc1cncc2ccccc12 [Tarocin A2, reference compound]
[1]
  IC50: 24.2 µM

## C[C@@H](O)[C@H]1C(=O)N2C(C(=O)O)=C(SCCN=CN)C[C@H]12 [imipenem, reference compound]
[5]; Staphylococcus aureus, imipenem used alone, HS663, read-out: MIC of β-lactam, Individual
  MIC: 64 µg/mL
[5]; imipenem used alone, HS663
  MIC of β-lactam, Individual: 64 µg/mL

## Cc1onc(-c2ccccc2)c1C(=O)N[C@@H]1C(=O)N2[C@@H]1SC(C)(C)[C@@H]2C(=O)O [oxacillin, reference compound]
[2]; Staphylococcus aureus, oxacillin used alone, USA300 LAC, read-out: MIC of β-lactam, Individual
  MIC: 64 µg/mL
[2]; oxacillin used alone, USA300 LAC
  MIC of β-lactam, Individual: 64 µg/mL
[4]; Staphylococcus aureus, oxacillin used alone, USA400 MW2, read-out: MIC of β-lactam, Individual
  MIC: 16 µg/mL
[4]; oxacillin used alone, USA400 MW2
  MIC of β-lactam, Individual: 16 µg/mL

## tunicamycin [reference compound]
[1]; MRSA USA300 LAC strain, exponential growth phase
  induction of vraXpro-lux expression: concentration-dependent manner
[1]; post-exponential growth phase
  bacterial growth density (OD600): effectively reduced the bacterial growth density

Reference: PMC11993615, “Design, synthesis and optimization of TarO inhibitors as multifunctional antibiotics against Methicillin-resistant Staphylococcus aureus” (npj Antimicrobials and Resistance, 2025)
